The results in this text go back to ChEMBL document CHEMBL5226346, “Chiral Cyclic Aliphatic Linkers as Building Blocks for Selective Dopamine D2 or D3 Receptor Agonists” (J Med Chem, 2021).

Test [1] is filed under the species Homo sapiens. The test is described as follows: Selectivity ratio of Ki for displacement of [3H]-N-methylspiperone from human dopamine D2 receptor expressed in HEK293 cell membranes to Ki for displacement of [3H]-N-methylspiperone from human dopamine D3 receptor expressed in HEK293 cell membranes. For orientation: In a radioligand displacement assay an active substance lowers the binding of a labelled ligand.

Another test concerns HEK293. The test can be described thus: Selectivity ratio of Ki for displacement of [3H]-(R)-(+)7-OH-DPAT from human dopamine D2 receptor expressed in HEK293 cell membranes to Ki for displacement of [3H]-(R)-(+)7-OH-DPAT from human dopamine D3 receptor expressed in HEK293 cell membranes. As to conditions: Cell membrane.
A further test deals with D(2) dopamine receptor (Homo sapiens, UniProt P14416). The test can be described thus: Displacement of [3H]-(R)-(+)7-OH-DPAT from human dopamine D2 receptor expressed in HEK293 cell membranes incubated for 90 mins by microbeta scintillation counting analysis. Set-up: species or system Cell membrane.
Another test deals with D(3) dopamine receptor (Homo sapiens, UniProt P35462). The test can be described thus: Displacement of [3H]-(R)-(+)7-OH-DPAT from human dopamine D3 receptor expressed in HEK293 cell membranes incubated for 90 mins by microbeta scintillation counting analysis. Set-up: species or system Cell membrane.
The species named for test [2] is Homo sapiens. The test can be described thus: Selectivity ratio of Ki for displacement of [3H]-(R)-(+)7-OH-DPAT from human dopamine D3 receptor expressed in HEK293 cell membranes to Ki for displacement of [3H]-(R)-(+)7-OH-DPAT from human dopamine D2 receptor expressed in HEK293 cell membranes.

Sequence of D(2) dopamine receptor (P14416 whole entry): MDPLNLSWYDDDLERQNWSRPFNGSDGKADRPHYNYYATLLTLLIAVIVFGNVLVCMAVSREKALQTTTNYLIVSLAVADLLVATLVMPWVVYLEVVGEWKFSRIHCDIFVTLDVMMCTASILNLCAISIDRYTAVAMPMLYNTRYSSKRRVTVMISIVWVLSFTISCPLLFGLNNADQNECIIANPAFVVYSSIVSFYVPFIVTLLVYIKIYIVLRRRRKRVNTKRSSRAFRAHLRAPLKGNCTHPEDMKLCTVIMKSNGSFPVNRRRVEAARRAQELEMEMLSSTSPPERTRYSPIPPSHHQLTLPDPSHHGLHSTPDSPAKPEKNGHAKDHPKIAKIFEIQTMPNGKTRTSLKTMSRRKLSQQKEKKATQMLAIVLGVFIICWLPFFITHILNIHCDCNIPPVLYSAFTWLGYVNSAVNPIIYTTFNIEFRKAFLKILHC
Sequence of D(3) dopamine receptor (P35462 whole entry): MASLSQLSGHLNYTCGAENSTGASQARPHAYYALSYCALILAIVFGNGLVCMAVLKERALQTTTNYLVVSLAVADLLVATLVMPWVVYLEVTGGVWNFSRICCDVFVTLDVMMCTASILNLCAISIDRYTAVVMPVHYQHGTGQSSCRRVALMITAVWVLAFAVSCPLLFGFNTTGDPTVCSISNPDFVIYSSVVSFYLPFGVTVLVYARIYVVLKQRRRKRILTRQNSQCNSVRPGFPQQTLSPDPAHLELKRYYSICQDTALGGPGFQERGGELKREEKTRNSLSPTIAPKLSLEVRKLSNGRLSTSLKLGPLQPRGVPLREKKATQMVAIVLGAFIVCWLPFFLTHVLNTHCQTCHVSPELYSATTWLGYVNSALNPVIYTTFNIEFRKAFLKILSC

The term Ki denotes the dissociation constant of the complex between target and ligand, obtained from inhibition or displacement. Turning to `C[C@H]1CO[C@@H](c2ccc(N)nc2)CN1CC(=O)N1CCC(CNC(=O)c2cc3ccccc3[nH]2)C1` (some centres undefined), the Ratio Ki in the test listed under Homo sapiens [1] is 3.3; with HEK293 it was 1.4. For the same compound, the results for the Ki at D(2) dopamine receptor and on D(3) dopamine receptor were 1870 nM and 1380 nM, respectively.
On to `C[C@H]1CO[C@@H](c2ccc(N)nc2)CN1C/C=C1\CCC(CNC(=O)c2cc3ccccc3[nH]2)C1` (mixture of isomers), for which the values for the Ratio Ki in the test filed under Homo sapiens [1] and in the test with HEK293 were 76 and 7.5, respectively.
`CN(C[C@@H]1C[C@H]1CCNC(=O)c1cc2ccccc2[nH]1)[C@@H]1Cc2cccc3[nH]c(=O)n(c23)C1`: the Ratio Ki in the test filed under Homo sapiens [2] was 11. Moreover, the inhibitory constant (Ki) at D(2) dopamine receptor stood at 9.56 nM; at D(3) dopamine receptor it was 106 nM.
Regarding `CN(CC[C@@H]1CC[C@H](CNC(=O)c2cc3ccccc3[nH]2)C1)[C@@H]1Cc2cccc3[nH]c(=O)n(c23)C1` (relative stereo), in the test listed under Homo sapiens [2], the Ratio Ki amounted to 9.6.
Consider `C[C@H]1CO[C@@H](c2ccc(N)nc2)CN1CCn1cc(CNC(=O)c2cc3ccccc3[nH]2)nn1`, for which the Ratio Ki in the test listed under Homo sapiens [1] was 12; in the test on HEK293, 2. In addition, the inhibition constant (Ki) on D(2) dopamine receptor was 13500 nM; at D(3) dopamine receptor, 6860 nM.
In the case of `CN(CC[C@@H]1CC[C@@H](CNC(=O)c2cc3ccccc3[nH]2)C1)[C@@H]1Cc2cccc3[nH]c(=O)n(c23)C1` (relative stereo), the Ratio Ki in the test listed under Homo sapiens [2] came to 17.
In the case of `CN(C[C@H]1C[C@@H]1CCNC(=O)c1cc2ccccc2[nH]1)[C@@H]1Cc2cccc3[nH]c(=O)n(c23)C1`, the Ratio Ki in the test on HEK293 stood at 2.2. In addition, the inhibition constant Ki was 49.1 nM at D(2) dopamine receptor and 22.1 nM on D(3) dopamine receptor.
Take `CN[C@@H]1Cc2cccc3[nH]c(=O)n(c23)C1` [SUMANIROLE]: the Ki at D(3) dopamine receptor was determined as 784 nM.
